# Patent publication EP0195147A1, “Trihalo(amine)gold(III) complexes” (ENGELHARD CORPORATION, priority 1985, dated 1986)
# Where “and” joins values, the source holds several entries; their conditions need not be identical. Equal entries are not always repeated.
# How the values were obtained:
# [1] = tested on: implanted Sarcoma 180 tumors; conditions: value attributed to commercially available Cisplatin; cited from earlier work
# [2] = tested on: S 180 ascites; experiment: Anti-tumor screening against S 180 ascites (% increase in life span); type: in vivo, female CFW Swiss mice; conditions: for Survivors: survivors on day of evaluation (twice the mean life span of the control)
# Method: The above prepared compounds were evaluated against §180 ascites in female CFW Swiss mice. The mice were weighed (average weight: 20 g), placed into cages (six mice to a cage) and on day zero the mice were inoculated with 0.2 ml of a freshly prepared saline suspension (0.15 M NaCl) containing 1 x 10^7 tumor cells/ml or a total of 2 x 10^6 cells. This inoculum was freshly prepared using "transfer" mice which had been injected with tumor cells the previous week; it was obtained via the following steps: (1) the removal of cells from the peritoneal cavity of the sacrificed transfer mouse, (2) alternate centrifugation and washing operations (2-3 times with cold saline) to remove blood and other components, and (3) dilution of the volume of the packed cell with saline (1:3). A final centrifugation was carried out at 1000 RPM over a two minute period. A cell count was made on a 2,000-fold dilution of this 1:3 suspension by means of a Coulter Counter. A final dilution to […] cells/ml was made based on the average count.
# On day 1, solutions of the test compounds were prepared and each mouse in a set of six were injected with the same test compound at the same dosage. The doses were based on the average weight of the animals (cage weight). Also, beginning on day 1 two controls were employed containing six mice per control; • (1) Normal Control: This consisted solely of the carrier or diluent used in combination with the test compound; and • (2) Positive Control: This consisted solely of the known anti-tumor agent cis-[Pt(NH3)2C12] (Cisplatin) in saline (8 mg/kg) to test the response of the
# The effectiveness of a test compound was measured in terms of the % increase in life span (%ILS) of the test mice relative to the Normal Control (Calculated from the day of tumor inoculation, ie., day zero). To standardize the test data and permit intercomparisons, the day of evaluation was arbitrarily taken as that day corresponding to twice the mean life span (or average day of death) of the control. This established a practical upper limit of 100% on the %ILS attainable. For calculation purposes the survivors on the day of evaluation were considered to have died on that day. The %ILS was calculated as follows: [formula] ILS values in excess of 50% were interpreted as being indicative of anti-tumor activity, whereas, values in excess of 75% indicated excellent activity.
# The products of Examples 1, 4, 10 and 11 were administered in a freshly prepared 1% sodium bicarbonate solution; the remaining test compounds were administered as slurries in 0.5% "Klucel" (hydroxypropylcellulose). All products (I) are insoluble in water.
# [3] = Therapeutic indices, ED90 and LD50 by the method of Miller and Tainter; parameters: species or system Swiss white mice; conditions: mouse, in vivo; for selectivity ratio: LD50/ED90, read-out: Therapeutic Index; for LD50: lethal dose to 50% of the animals
# Method: The therapeutic indices for the present compounds (I), their effective dose (ED90) and lethal dose (LD50) were determined according to the method of Miller and Tainter (Reported by R. A. Turner, "Screening Methods in Pharmacology", Academic Press, New York, pages 61-62 (1976)).
# [4] = Solubility; type: physicochemical; conditions: 1% sodium bicarbonate solution; read-out: soluble in 1% sodium bicarbonate solution to the extent of
SMILES,Therapeutic Index [1],"Positive Control Survivors ([2]; Cisplatin in saline, 8 mg/kg, run alongside the example of the same table line, listed as Positive Control)",Survivors ([2]; Dose 10 mg/kg),Survivors ([2]; Dose 20 mg/kg),Survivors ([2]; Dose 40 mg/kg),Survivors ([2]; Dose 80 mg/kg),Survivors ([2]; Dose 160 mg/kg),Survivors ([2]; Dose 320 mg/kg),selectivity ratio [3],LD50 [3] [mg/kg],solubility [4] [mg/mL],Survivors ([2]; Dose 5 mg/kg),anti-tumor activity (in words) ([2]; within the 20-40 mg/kg range),"anti-tumor activity (in words) ([2]; 50% ILS criterion, all doses tested)"
"N.N.[Cl][Pt][Cl] [Cisplatin, cis-[Pt(NH3)2C12], reference compound]",2.2-2.5,0 of 6 and 4 of 6 and 1 of 6 and 6 of 6,,,,,,,,,,,,
"O=C(O)c1ccc[n+]([Au-]([Cl])([Cl])[Cl])c1 [Ex. 1, Trichloro(Nicotinic Acid)Gold(III)]",,,0 of 6,3 of 6,3 of 6,4 of 6,0 of 6,0 of 6,5.8,180,12.8,,,
"Cn1cc[n+]([Au-]([Cl])([Cl])[Cl])c1 [Ex. 2, Trichloro(N-Methylimidazole)Gold(III)]",,,0 of 6,1 of 6,4 of 6,1 of 6,0 of 6,,2.8,90,,0 of 6,decidedly active,
"CC(=O)c1ccc[n+]([Au-]([Cl])([Cl])[Cl])c1 [Ex. 3, trichloro(3-acetylpyridine)gold(III)]",,,0 of 6,1 of 6,5 of 6,4 of 6,0 of 6,0 of 6,4.5,140,,,,
"O=C(O)Cc1ccc[n+]([Au-]([Cl])([Cl])[Cl])c1 [Ex. 4, trichloro-(3-pyridyacetic acid)gold(III)]",,,0 of 6,0 of 6,1 of 6,1 of 6,0 of 6,0 of 6,1.8,150,12.8,,,
Oc1ccc[n+]([Au-]([Cl])([Cl])[Cl])c1 [Ex. 5],,,0 of 6,2 of 6,3 of 6,2 of 6,0 of 6,0 of 6,,,,,,
OCc1ccc[n+]([Au-]([Cl])([Cl])[Cl])c1 [Ex. 6],,,0 of 6,1 of 6,3 of 6,0 of 6,0 of 6,0 of 6,2.1,90,,,,
"[Cl][Au-]([Cl])([Cl])[n+]1ccccc1 [Ex. 7, trichloro(pyridine)gold(III)]",,,3 of 6,2 of 6,3 of 6,2 of 6,0 of 6,0 of 6,,,,,,
"[Cl][Au-]([Cl])([Cl])[n+]1cc[nH]c1 [Ex. 8, trichloro(imidazole)gold(III)]",,,0 of 6,1 of 6,0 of 6,1 of 6,2 of 6,,,,,0 of 6,,
"Cn1cc[n+]([Au-]([Br])([Br])[Br])c1 [Ex. 9, Tribromo(N-Methylimidazole)Gold(III)]",,,0 of 6,4 of 6,3 of 6,1 of 6,0 of 6,0 of 6,2,85,,,,
O=C(O)c1ccc[n+]([Au-]([Br])([Br])[Br])c1 [Ex. 10],,,0 of 6,0 of 6,2 of 6,0 of 6,0 of 6,0 of 6,,,12.8,,,
"O=C(O)Cc1ccc[n+]([Au-]([Br])([Br])[Br])c1 [Ex. 11, tribromo(3-pyridylacetic acid)gold(III)]",,,0 of 6,0 of 6,0 of 6,1 of 6,0 of 6,0 of 6,,,12.8,,,
O=C(O)Cc1ccc[n+]([Au-]([Cl])([Cl])[Cl])c1 [trichloro-(3-pyridyacetic acid)gold(III)],,,,,,,,,,,,,,pronounced anti-tumor effect
